A word on the IC50: it is the concentration that gives 50% inhibition.

In one experiment the target is T1, GCS (Canis lupus familiaris, UniProt A0A8I3MXG6).
T1 sequence (A0A8I3MXG6 1-394): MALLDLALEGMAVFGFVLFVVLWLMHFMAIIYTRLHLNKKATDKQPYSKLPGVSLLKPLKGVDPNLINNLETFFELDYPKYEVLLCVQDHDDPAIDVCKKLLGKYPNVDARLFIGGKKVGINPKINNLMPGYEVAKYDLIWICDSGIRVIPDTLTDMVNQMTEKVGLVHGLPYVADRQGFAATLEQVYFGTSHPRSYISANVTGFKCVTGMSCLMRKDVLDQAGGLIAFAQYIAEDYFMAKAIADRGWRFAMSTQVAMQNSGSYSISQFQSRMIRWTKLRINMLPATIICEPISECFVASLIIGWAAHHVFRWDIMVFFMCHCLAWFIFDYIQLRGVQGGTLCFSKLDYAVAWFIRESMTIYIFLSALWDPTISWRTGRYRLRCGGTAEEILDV
The experiment in a line: Assay 1: GCS Enzymatic Assay (MDCK cell lysate, C6-NBD-Ceramide, LC/MS). Format: biochemical, canine. Conditions: Table 2; data marked by *. An outline of the steps: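 LC/MS/MS measurement of glucosylceramide and NBD-ceramide after a 1 h, 37 °C reaction with 100 μM UDP-glucose and 10 μM C6-NBD-ceramide gave IC50s or percent inhibition.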
For the compound `O=C(N[C@H](CN1CCCC1)[C@H](O)c1ccc2c(c1)OCCO2)C(=O)N1CCN(c2ccc(F)cc2)CC1` [Compound 252, N-((1R,2R)-1-(2,3-dihydrobenzo[b][1,4]dioxin-6-yl)-1-hydroxy-3-(pyrrolidin-1-yl)propan-2-yl)-2-(4-(4-fluorophenyl)piperazin-1-yl)-2-oxoacetamide], the “% inhibition generated from Assay 1” value is listed as “A* (the compound had a % inhibition of a percent inhibition of greater than or equal to about 50%)”.

Staying with this experiment, now noted: Table 2; data without asterisk; read-out: IC50 (nM) generated from Assay 1.
With `O=C(N[C@H](CN1CCCC1)[C@H](O)c1ccc(OC2CC2)c(Cl)c1)C(=O)c1cccc(Oc2ccc(F)cc2)c1` [Compound 249, N-((1R,2R)-1-(3-chloro-4-cyclopropoxyphenyl)-1-hydroxy-3-(pyrrolidin-1-yl)propan-2-yl)-2-(3-(4-fluorophenoxy)phenyl)-2-oxoacetamide], the concentration for half-maximal inhibition (IC50) was below 50 nM.

As for `O=C(N[C@H](CN1CCCC1)[C@H](O)c1cc(F)c2c(c1)OCCO2)C(=O)c1cccc(-c2ccc(F)cc2)c1` [Compound 250, N-((1R,2R)-1-(8-fluoro-2,3-dihydrobenzo[b][1,4]dioxin-6-yl)-1-hydroxy-3-(pyrrolidin-1-yl)propan-2-yl)-2-(4′-fluoro-[1,1′-biphenyl]-3-yl)-2-oxoacetamide], the IC50 was below 50 nM.

With `O=C(N[C@H](CN1CCCC1)[C@H](O)c1ccc(OC2CC2)c(Cl)c1)C(=O)c1cccc(-c2ccc(F)cc2)c1` [Compound 251, N-((1R,2R)-1-(3-chloro-4-cyclopropoxyphenyl)-1-hydroxy-3-(pyrrolidin-1-yl)propan-2-yl)-2-(4′-fluoro-[1,1′-biphenyl]-3-yl)-2-oxoacetamide], the IC50 is below 50 nM.

`O=C(N[C@H](CN1CCC1)[C@H](O)c1ccc(OC2CC2)c(Cl)c1)C(=O)c1ccc(-c2ccc(F)cc2)cc1` [Compound 253, N-((1R,2R)-3-(azetidin-1-yl)-1-(3-chloro-4-cyclopropoxyphenyl)-1-hydroxypropan-2-yl)-2-(4′-fluoro-[1,1′-biphenyl]-4-yl)-2-oxoacetamide]: the IC50 was below 50 nM.

With `O=C(N[C@H](CN1CCCC1)[C@H](O)c1cc(F)c2c(c1)OCCO2)C(=O)N1CCN(c2ccc(F)cc2)CC1` [Compound 254, N-((1R,2R)-1-(8-fluoro-2,3-dihydrobenzo[b][1,4]dioxin-6-yl)-1-hydroxy-3-(pyrrolidin-1-yl)propan-2-yl)-2-(4-(4-fluorophenyl)piperazin-1-yl)-2-oxoacetamide], the 50% inhibitory concentration (IC50) was below 50 nM.

Consider `CC(C)(C)c1ccc(-c2ccc(C(=O)C(=O)N[C@H](CN3CCCC3)[C@H](O)c3ccc(OC4CC4)c(Cl)c3)cc2)cc1` [Compound 255, 2-(4′-(tert-butyl)-[1,1′-biphenyl]-4-yl)-N-((1R,2R)-1-(3-chloro-4-cyclopropoxyphenyl)-1-hydroxy-3-(pyrrolidin-1-yl)propan-2-yl)-2-oxoacetamide], for which the IC50 was below 50 nM.

As for `CC(C)n1ncc2ccc(-c3ccc(C(=O)C(=O)N[C@H](CN4CCCC4)[C@H](O)c4ccc(OC5CC5)c(Cl)c4)cc3)cc21` [Compound 256, N-((1R,2R)-1-(3-chloro-4-cyclopropoxyphenyl)-1-hydroxy-3-(pyrrolidin-1-yl)propan-2-yl)-2-(4-(1-isopropyl-1H-indazol-6-yl)phenyl)-2-oxoacetamide], the IC50 is below 50 nM.

Take `CC(C)n1cc2ccc(-c3ccc(C(=O)C(=O)N[C@H](CN4CCCC4)[C@H](O)c4ccc(OC5CC5)c(Cl)c4)cc3)cc2n1` [Compound 257, N-((1R,2R)-1-(3-chloro-4-cyclopropoxyphenyl)-1-hydroxy-3-(pyrrolidin-1-yl)propan-2-yl)-2-(4-(2-isopropyl-2H-indazol-6-yl)phenyl)-2-oxoacetamide]: the IC50 is below 50 nM.

As to `O=C(N[C@H](CN1CCCC1)[C@H](O)c1cc(F)c2c(c1)OCCO2)C(=O)c1ccc(-c2ccc(Cl)s2)cc1` [Compound 360, 2-(4-(5-chlorothiophen-2-yl)phenyl)-N-((1R,2R)-1-(8-fluoro-2,3-dihydrobenzo[b][1,4]dioxin-6-yl)-1-hydroxy-3-(pyrrolidin-1-yl)propan-2-yl)-2-oxoacetamide], the IC50 is below 50 nM.

`COc1c(F)cc([C@@H](O)[C@@H](CN2CCCC2)NC(=O)C(=O)c2ccc(-c3ccc(F)cc3)cc2)cc1OC(C)C` [Compound 361, N-((1R,2R)-1-(3-fluoro-5-isopropoxy-4-methoxyphenyl)-1-hydroxy-3-(pyrrolidin-1-yl)propan-2-yl)-2-(4′-fluoro-[1,1′-biphenyl]-4-yl)-2-oxoacetamide]: the IC50 was in the range of 50 to 5000 nM.

For the compound `CC1(C)COc2c(F)cc([C@@H](O)[C@@H](CN3CCCC3)NC(=O)C(=O)c3ccc(-c4ccc(F)cc4)cc3)cc2O1` [Compound 362, N-((1R,2R)-1-(8-fluoro-3,3-dimethyl-2,3-dihydrobenzo[b][1,4]dioxin-6-yl)-1-hydroxy-3-(pyrrolidin-1-yl)propan-2-yl)-2-(4′-fluoro-[1,1′-biphenyl]-4-yl)-2-oxoacetamide], the IC50 is below 50 nM.

In the case of `O=C(N[C@H](CN1CCCC1)[C@H](O)c1ccc(OC2CC2)c(Cl)c1)C(=O)c1ccc(-c2ccc(Cl)s2)cc1` [Compound 363, N-((1R,2R)-1-(3-chloro-4-cyclopropoxyphenyl)-1-hydroxy-3-(pyrrolidin-1-yl)propan-2-yl)-2-(4-(5-chlorothiophen-2-yl)phenyl)-2-oxoacetamide], the IC50 is below 50 nM.

For `COc1c(F)cc([C@@H](O)[C@@H](CN2CCCC2)NC(=O)C(=O)c2cc3ccc(Cl)cc3s2)cc1OC(C)C` [Compound 364, 2-(6-chlorobenzo[b]thiophen-2-yl)-N-((1R,2R)-1-(3-fluoro-5-isopropoxy-4-methoxyphenyl)-1-hydroxy-3-(pyrrolidin-1-yl)propan-2-yl)-2-oxoacetamide], the IC50 fell in the range of 50 to 5000 nM.

For the compound `O=C(N[C@H](CN1CCCC1)[C@H](O)c1ccc(OC2CC2)c(Cl)c1)C(=O)c1cc2ccc(Cl)cc2o1` [Compound 365, N-((1R,2R)-1-(3-chloro-4-cyclopropoxyphenyl)-1-hydroxy-3-(pyrrolidin-1-yl)propan-2-yl)-2-(6-chlorobenzofuran-2-yl)-2-oxoacetamide], the concentration for half-maximal inhibition (IC50) was below 50 nM.

For the compound `O=C(N[C@H](CN1CCCC1)[C@H](O)c1cc(F)c2c(c1)OCCO2)C(=O)c1cc2ccc(Cl)cc2o1` [Compound 366, 2-(6-chlorobenzofuran-2-yl)-N-((1R,2R)-1-(8-fluoro-2,3-dihydrobenzo[b][1,4]dioxin-6-yl)-1-hydroxy-3-(pyrrolidin-1-yl)propan-2-yl)-2-oxoacetamide], the IC50 is below 50 nM.

As for `O=C(N[C@H](CN1CCCC1)[C@H](O)c1ccc(OC2CC2)c(Cl)c1)C(=O)c1ccc(N2CCOCC2)cc1` [Compound 368, N-((1R,2R)-1-(3-chloro-4-cyclopropoxyphenyl)-1-hydroxy-3-(pyrrolidin-1-yl)propan-2-yl)-2-(4-morpholinophenyl)-2-oxoacetamide], the IC50 is below 50 nM.

Regarding `O=C(N[C@H](CN1CCC1)[C@H](O)c1cc(F)c2c(c1)OCCO2)C(=O)c1ccc(N2CCOCC2)cc1` [Compound 369, N-((1R,2R)-3-(azetidin-1-yl)-1-(8-fluoro-2,3-dihydrobenzo[b][1,4]dioxin-6-yl)-1-hydroxypropan-2-yl)-2-(4-morpholinophenyl)-2-oxoacetamide], the IC50 was below 50 nM.

Consider `O=C(N[C@H](CN1CCCC1)[C@H](O)c1ccc(OC2CC2)c(Cl)c1)C(=O)c1ccc(-c2ccc(C3CC3)cc2)cc1` [Compound 370, N-((1R,2R)-1-(3-chloro-4-cyclopropoxyphenyl)-1-hydroxy-3-(pyrrolidin-1-yl)propan-2-yl)-2-(4′-cyclopropyl-[1,1′-biphenyl]-4-yl)-2-oxoacetamide], for which the half-maximal inhibitory concentration (IC50) is below 50 nM.

As for `O=C(N[C@H](CN1CCCC1)[C@H](O)c1cc(F)c2c(c1)OCCO2)C(=O)c1ccc(-c2ccc(C3CC3)cc2)cc1` [Compound 371, 2-(4′-cyclopropyl-[1,1′-biphenyl]-4-yl)-N-((1R,2R)-1-(8-fluoro-2,3-dihydrobenzo[b][1,4]dioxin-6-yl)-1-hydroxy-3-(pyrrolidin-1-yl)propan-2-yl)-2-oxoacetamide], the IC50 is below 50 nM.

For the compound `O=C(N[C@H](CN1CCCC1)[C@H](O)c1ccc(OC2CC2)c(Cl)c1)C(=O)c1ccc(C2CCOCC2)cc1` [Compound 372, N-((1R,2R)-1-(3-chloro-4-cyclopropoxyphenyl)-1-hydroxy-3-(pyrrolidin-1-yl)propan-2-yl)-2-oxo-2-(4-(tetrahydro-2H-pyran-4-yl)phenyl)acetamide], the concentration for half-maximal inhibition (IC50) is below 50 nM.

As to `O=C(N[C@H](CN1CCCC1)[C@H](O)c1cc(F)c2c(c1)OCCO2)C(=O)c1ccc(C2CCOCC2)cc1` [Compound 373, N-((1R,2R)-1-(8-fluoro-2,3-dihydrobenzo[b][1,4]dioxin-6-yl)-1-hydroxy-3-(pyrrolidin-1-yl)propan-2-yl)-2-oxo-2-(4-(tetrahydro-2H-pyran-4-yl)phenyl)acetamide], the IC50 was below 50 nM.

In the case of `O=C(N[C@H](CN1CCCC1)[C@H](O)c1ccc(OC2CC2)cc1)C(=O)c1ccc(N2CCOCC2)cc1` [Compound 374, N-((1R,2R)-1-(4-cyclopropoxyphenyl)-1-hydroxy-3-(pyrrolidin-1-yl)propan-2-yl)-2-(4-morpholinophenyl)-2-oxoacetamide], the IC50 was 50 to 5000 nM.

As to `O=C(N[C@H](CN1CCCC1)[C@H](O)c1ccc(OC2CC2)c(Cl)c1)C(=O)c1ccc(N2CCC2)cc1` [Compound 375, 2-(4-(azetidin-1-yl)phenyl)-N-((1R,2R)-1-(3-chloro-4-cyclopropoxyphenyl)-1-hydroxy-3-(pyrrolidin-1-yl)propan-2-yl)-2-oxoacetamide], the IC50 was in the range of 50 to 5000 nM.

For the origin of these results see US10227323B2, “Glucosylceramide synthase inhibitors for the treatment of diseases” (BIOMARIN PHARMACEUTICAL INC., priority 2013, dated 2019).
